# In paper PMC9124866, “Structure-Activity Relationships of Dopamine Transporter Pharmacological Chaperones” (Frontiers in Cellular Neuroscience, 2022):
# Tests used:
# Type in all cases: cell-based
# [1] = molecular target: T1, WT DAT (YFP-HA-DAT) (Homo sapiens, UniProt Q01959); assay: Western blot of mature WT DAT protein levels; conditions: overnight 100 μM
# T1 construct: expressed in transfected cells; host or cells: HEK293
# Description: (§1) Cells (1 × 10^6 cells/well) were seeded onto a 6-well plate and incubated for 24 h. Cells were then treated with drugs and incubated for 16 h. After the incubation period, cells were lysed in RIPA buffer supplemented with protease inhibitors (working concentrations: pepstatin A, 5 μg/mL; leupeptin, 10 μg/mL; aprotinin, 1.5 μg/mL; benzamidine, 0.1 μg/mL; PMSF, 0.1 mM) on ice. At 4°C, cell lysates were gently shaken for 15 min followed by centrifugation at 15,000 rpm for 15 min to pellet debris. The Pierce BCA protein assay kit (Thermo Fisher Scientific, Canada) was used to determine the protein concentration of the supernatant. To reach a concentration of 40 μg of protein per 20 μL, samples were diluted in fresh RIPA buffer with 12.5% Laemmli sample buffer and 2.5% β-Mercaptoethanol prior to being heated to 55°C. The protein was then loaded on a 7.5 or 10% SDS-PAGE gel and run at 100 V for approximately an hour or until the dye front reached the bottom of the gel. Next, protein was transferred to a PVDF membrane at 22 V for 16 h or 100 V for 1 h. Blots were blocked with LI-COR blocking buffer for 1 h and incubated for 1 h at room temperature with rabbit anti-GFP (1:1,000 dilution; Life Technologies, cat#A11122). After washing three times with TBST, blots were incubated with goat anti-rabbit IRDye-680RD secondary antibody (1:15,000; LI-COR, cat#926-68071). As a loading control, blots were incubated with mouse anti-GAPDH (1:5,000, Sigma-Aldrich, Canada, cat#G8795) prior to secondary antibody goat anti-mouse IRDye-800GR (1:5,000 dilution, Rockland, Limerick, PA, cat#610-132-007). All antibodies were diluted in LI-COR blocking buffer. Additionally, REVERT total protein staining (LI-COR, Lincoln, NE) was used as a loading control. […] Mature, fully glycosylated DAT (mDAT = 110 kDa) and immature, ER-resident DAT (iDAT = 75 kDa) were visualized using the Odyssey Imaging System (LI-COR, Lincoln, NE) and Image Studio Version 5.2 software (Supplementary Figure 1).
# (§2) We next assessed whether drugs that increase DAT surface expression also increase total protein levels of DAT. Cells expressing YFP-HA-DAT were incubated with select test compounds and DAT protein levels were examined by western blot. The effects of the compounds were assessed on WT DAT and K590A DAT. The K590A mutant is a well-characterized ER-retained, trafficking-deficient DAT mutant ([Miranda et al., 2004]) that can be rescued by pharmacological chaperones ([Beerepoot et al., 2016]).
# (§3) FIGURE 5 Effect of noribogaine, tetrahydroharmine, PAL-594, bicifadine, and RTI-20 on WT and K590A DAT expression. […] (B) Quantification of WT mDAT protein levels. […] (D) Quantification of K590A mDAT protein levels. […]
# [2] = molecular target: T2, K590A DAT (Homo sapiens, UniProt Q01959, K590A); assay: Western blot of mature K590A DAT protein levels; conditions: overnight treatment
# T2 construct: expressed in transfected cells; host or cells: HEK293
# T2 sequence (Q01959 whole entry K590A): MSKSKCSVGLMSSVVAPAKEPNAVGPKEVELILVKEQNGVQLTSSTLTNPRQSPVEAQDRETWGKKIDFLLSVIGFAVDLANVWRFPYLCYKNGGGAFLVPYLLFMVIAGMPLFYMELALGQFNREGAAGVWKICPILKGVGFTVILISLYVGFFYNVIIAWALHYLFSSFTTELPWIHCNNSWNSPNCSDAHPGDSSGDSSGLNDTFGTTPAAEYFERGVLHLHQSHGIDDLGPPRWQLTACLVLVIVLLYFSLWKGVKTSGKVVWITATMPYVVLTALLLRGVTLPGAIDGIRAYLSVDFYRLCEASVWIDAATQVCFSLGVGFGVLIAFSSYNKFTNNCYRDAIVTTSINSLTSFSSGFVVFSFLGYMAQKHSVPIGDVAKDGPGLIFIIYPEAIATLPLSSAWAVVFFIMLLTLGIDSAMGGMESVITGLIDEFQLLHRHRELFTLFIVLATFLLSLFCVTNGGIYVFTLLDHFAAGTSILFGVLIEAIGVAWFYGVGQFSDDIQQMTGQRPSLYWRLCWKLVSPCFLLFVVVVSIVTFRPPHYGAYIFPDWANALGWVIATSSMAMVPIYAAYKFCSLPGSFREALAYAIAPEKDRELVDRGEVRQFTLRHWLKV
# Description: as §1, §2, §3
# [3] = molecular target: T3, DAT (Homo sapiens, UniProt Q01959); assay: Dopamine uptake inhibition dose response of hit compounds (Figure 6); conditions: doses 1 nM to 100 μM, normalized to vehicle
# T3 construct: expressed in transfected cells
# T3 sequence (Q01959 whole entry): as the sequence (Q01959 whole entry K590A) above, with A590K counted along it
# Description: Dopamine uptake inhibition was conducted using the Neurotransmitter Transporter Uptake Assay Kit (Molecular Devices, prod#R8173). Cells (1 × 10^5/well) were seeded into 96-well plates and incubated for 24 h. The cells were subjected to overnight drug treatment. The following day, wells were washed and incubated for 30 min with a mixture of 1X Hank’s Balanced Salt Solution (HBSS) and 0.1% Bovine Serum Albumin (BSA) Buffer. Dopamine uptake inhibitors were added during the incubation period. Following the incubation, the fluorescent dye was added, and the plate was immediately transferred to the bottom-read fluorescence microplate reader (Spectramax M3, Molecular Devices) for kinetic read-mode. The assay reads the amount of fluorescent activity which increases as fluorescent dye molecules are transported into the cells by the DAT. The read-out for this assay is the slope which equals the fluorescent measurements/time, ultimately denoting the uptake rate.
# Data analysis was performed using GraphPad Prism (GraphPad Software, La Jolla, CA). Linear regression analysis was performed on βLAC time points to determine the slope, thus the rate of reaction, for comparison. Furthermore, the slope was also used to determine the degree of dopamine uptake in the dopamine uptake assays. […]
# T1 sequence (Q01959 whole entry): as the sequence (Q01959 whole entry K590A) above, with A590K counted along it
smiles,measurement,setting,value
"CCC1CC2CC3c4[nH]c5ccc(O)cc5c4CCN(C2)C13 (stereo not drawn) [Noribogaine, reference compound]",mature WT DAT (mDAT) protein levels,[1],significantly increase
same,K590A DAT (mDAT) protein levels,[2],statistically significant effect
same,maximal dopamine uptake inhibition,[3],76%
